Article PMC6952197, “Harvesting of Prebiotic Fructooligosaccharides by Nonbeneficial Human Gut Bacteria” (mSphere, 2020)

B1: Dorea PTS_EIIBCA (I9 PTS_EIIBCA) (uncultured bacterium) (protein)
chain: MDYRKTAQDILDHVGGSKNIASAAHCATRLRLVIADNKKVSKEALENIDGVKGVFEASGQLQIILGTGTVNKVFAEFIDIAGITASSKAEAKEAAAEKQNWFMRAIKLLGDIFVPIIPAIVASGFLMGIMNSLDFMNSNGFLHINTHSSIYVFANLFSNIAYTFLQILIAFSAAKAFGANQYLGAVIGMIMIHPSLQNAYTVATEGVQQTQSVFFGLFKIDMVGYQGHVIPVIIAVWILAVIEKKLHKIVPEVLDLFVTPLVSVFVTGYLTLSIVGPIFVWAENAILGAIQWMLTLPLGIGSLIMGGLYAPTVVTGIHQMYTAIDIGQLAKYGVTYWLPLASAANVAQGAAALAVGIKSKDKKIKSLALPSSLSAFMGITEPAIFGVNLRFFKPFIAGCIGGGCGALYASLVHLGAKGTGVTGIFGILLCLNQPLQYLIEMVIAVGVAFVISFLIYKDAEPKAATADAAETAAVENMETTDAVATADTTAETAEETLTSPVNGTQIPLAEVADETFASEMLGATVAVEPADGKIVAPCDGEVSNIFETGHAVCITTESGGELLIHIGIDTVKMDGKGFTKKVSDGDKVHAGDILVEADLEEIKNAGYQTTTMMILTNTDEFGNVTKAEPAEVKTTSKVMTLTK
notes: full-length single multidomain protein (domains B, C, A; ten predicted transmembrane helices)

Legend:
[1] = molecular target: T1, Dorea PTS_EIIBCA (I9 PTS_EIIBCA) (uncultured bacterium, UniProt S6CP27); experiment: binding saturation on washed crude membranes; unbound kestose by HPAEC-PAD
T1 construct: full-length single multidomain protein (domains B, C, A; ten predicted transmembrane helices)
T1 sequence (S6CP27 1-643): B1 chain

[2] = substrate: OC[C@H]1O[C@@](CO)(OC[C@@]2(O[C@H]3O[C@H](CO)[C@@H](O)[C@H](O)[C@H]3O)O[C@H](CO)[C@@H](O)[C@@H]2O)[C@@H](O)[C@@H]1O; experiment: uptake saturation in intact E. coli cells; residual kestose by HPAEC-PAD; assay type: cell-based, uncultured bacterium; conditions: I9min_PTS cells (E. coli EPI100, host EI and HPr/FPr complement), TBS pH 7.0, 37°C, transport
From the text: uptake saturation in intact E. coli cells; residual kestose by HPAEC-PAD on Dorea PTS_EIIBCA (I9 PTS_EIIBCA) | The affinity constants of kestose uptake by I9min_PTS cells (Km)

Row | Molecule | Kd [1] [µM] | Km [2] [µM]
1 | OC[C@H]1O[C@@](CO)(OC[C@@]2(O[C@H]3O[C@H](CO)[C@@H](O)[C@H](O)[C@H]3O)O[C@H](CO)[C@@H](O)[C@@H]2O)[C@@H](O)[C@@H]1O [kestose] | 51 ± 12 | 
2 | B1 |  | 266 ± 165
